# Assay results: US12054562B2, “Cell-permeable inhibitory agent and methods of use thereof in treatment of cognitive and mood disorders” (priority 2015, dated 2024)
# Key:
# [1] = tested on: GABAA receptor-mediated tonic current in hippocampal neurons; assay: Whole-cell voltage-clamp recordings of tonic current in astrocyte-neuron co-cultures; format: cell-based, mouse; settings: neurons grown in co-cultures
# [2] = tested on: α5GABAA receptor cell-surface expression; assay: Receptor cell-surface ELISA assay in cultured hippocampal neurons; format: cell-based, mouse; settings: peptide 2 μM, 24 hrs, astrocyte-conditioned medium (etomidate 1 μM, 1 hr)
# Description: This experimental cell culture model was used to test the effects of the inhibitory peptide on an overexpression of α5GABAA receptors on the surface of neurons. The medium from astrocytes that were treated with etomidate (1 μM, 1 hr) (conditioned medium) was collected, and the medium bathing cultured hippocampal neurons was exchanged with the astrocyte-conditioned medium. The cells were incubated at 37° C., 5% CO2 with the peptide or scramble peptide (2 μM). After 24 hrs incubation, the cells were used for receptor cell-surface ELISA assay. The cells were fixed in 4% paraformaldehyde for 20 min in the presence (permeabilized) or absence (non-permeabilized) of 1% Triton-X100. The cells, after 3 times wash with cold PBS and blocked with 5% bovine album solution, were incubated with a α5 antibody (Santa Cruz Biotech Inc.) at 4° C. overnight. The next day the cells were thoroughly washed with PBS and incubated with the horseradish peroxidase (HRP)-conjugated secondary antibody for 2 hrs. With HRP substrate added and color developed in the medium, the results were determined with microplate reader.
# The cell surface expression of α5 subunit was presented as the ratio of the colorimetric reading under non-permeabilized conditions to those permeabilized conditions. Consistent with the previous report, etomidate increases α5GABAA receptor surface expression. This increase was blocked by the specific peptide, but not the scramble peptide (FIG. 6A).
# For astrocyte culture, cortical astrocytes were isolated from embryonic day 18 (E18) mouse embryos. Cells were allowed to grow to confluence in MEM and 10% fetal bovine serum (FBS; Life Technologies, Grand Island, New York) for 14 d. Cells were then enzymatically dissociated with trypsin-EDTA (0.05%; Life Technologies, Grand Island, New York), and passaged three times to obtain a nearly pure astrocytic culture. Astrocytes were then plated at a density of 25,000 cells per dish. […]
Molecule,etomidate-induced increase in α5GABAA receptor surface expression [2],further results
FC(F)OC(Cl)C(F)(F)F (stereo not shown) [isoflurane],,"tonic current ([1]; ISO, 250 μM): persistent increase"
Cc1ncc2n1-c1ccc(Cl)cc1C(c1ccccc1F)=NC2 [midazolam],,"tonic current ([1]; MDZ, 200 nM): persistent increase"
CC(C)c1cccc(C(C)C)c1O [propofol],,"tonic current ([1]; Prop, 3 μM): persistent increase"
FCOC(C(F)(F)F)C(F)(F)F [sevoflurane],,"tonic current ([1]; SEVO, 266 μM): persistent increase"
"AWDGKKAL (listed as Homo sapiens) [Peptide C8, N-terminal truncated peptide, positions 350-357]",prevented,
"DGKKAL (listed as Homo sapiens) [Peptide C6, N-terminal truncated peptide, positions 352-357]",did not,
"GWAWDGKKAL (listed as Homo sapiens) [Peptide C10, N-terminal truncated peptide, positions 348-357]",prevented,
"KKAL (listed as Homo sapiens) [Peptide C4, N-terminal truncated peptide, positions 354-357]",did not,
KRGWAWDGKKAL (listed as Homo sapiens) [α5pΔN4],retains the inhibitory function,
NYFTKRGWAWDG (listed as Homo sapiens) [α5pΔC4],lost the inhibitory function,
